Data published in US10219516B2, “Molecules having pesticidal utility, and intermediates, compositions, and processes, related thereto” (priority 2015, dated 2019).

What was measured:
Type in all cases: in vivo
[1] = system: Beet Armyworm (Spodoptera exigua, LAPHEG); assay: Bioassay on Beet Armyworm (BAW), 128-well diet tray assay; conditions: Beet Armyworm, 128-well diet tray assay, read-out: BAW rating
In short: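 Test molecule dissolved in acetone-water 90:10 is applied at 50 μg/cm^2 onto artificial diet and allowed to dry. Second instar larvae, one to five per well, are then added, and trays are vented and kept at 25° C. for five to seven days before mortality is scored.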

[2] = system: Cabbage Looper (Trichoplusia ni, TRIPNI); assay: Bioassay on Cabbage Looper (CL), 128-well diet tray assay; conditions: Trichoplusia ni; Cabbage Looper, 128-well diet tray assay; read-out: CL rating
In short: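 Percent mortality, averaged across eight replicate wells, was scored after five to seven days at 25° C. under a 14:10 light-dark cycle. Each well held one to five second instar larvae on artificial diet treated at 50 μg/cm^2 with compound from 90:10 acetone-water, allowed to dry before infestation.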

[3] = system: Yellow Fever Mosquito (Aedes aegypti, AEDSAE); assay: Bioassay on Yellow Fever Mosquito (YFM), 96-well plate larval assay; conditions: Yellow Fever Mosquito, 96-well plate larval assay
In short: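 Each well was scored for mortality after 3 days at room temperature under a non-evaporative lid. Test molecules came from DMSO masters (4000 ppm stock) diluted with water/acetone 90:10 and dispensed into six replicate plates, which were then infested with roughly 1-day-old larvae in liver-powder water.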

| Compound | pest or weed control at 50 µg/cm2 [1] [%] | pest or weed control at 50 µg/cm2 [2] [%] | YFM rating [3] |
| --- | --- | --- | --- |
| O=C(Nc1cccc2[nH]ccc12)c1cc(NC(=O)[C@H]2[C@H](c3cc(Cl)cc(Cl)c3)C2(Cl)Cl)ccc1Cl (relative stereo) [F528, 2-Chloro-5-(trans)-(2,2-dichloro-3-(3,5-dichlorophenyl)cyclopropane-1-carboxamido)-N-(1H-indol-4-yl)benzamide] | 50 to 100 | 50 to 100 | A (80-100) |
| O=C(Nc1cccc2cc[nH]c12)c1cc(NC(=O)[C@H]2[C@H](c3cc(Cl)cc(Cl)c3)C2(Cl)Cl)ccc1Cl (relative stereo) [F529, 2-Chloro-5-(trans)-(2,2-dichloro-3-(3,5-dichlorophenyl)cyclopropane-1-carboxamido)-N-(1H-indol-7-yl)benzamide] | 50 to 100 | 50 to 100 | A (80-100) |
| Cn1ccc2c(NC(=O)c3cc(NC(=O)[C@H]4[C@H](c5cc(Cl)cc(Cl)c5)C4(Cl)Cl)ccc3Cl)cccc21 (relative stereo) [F530, 2-Chloro-5-(trans)-(2,2-dichloro-3-(3,5-dichlorophenyl)cyclopropane-1-carboxamido)-N-(1-methyl-1H-indol-4-yl)benzamide] | 50 to 100 | 50 to 100 | A (80-100) |
| Cn1ccc2cccc(NC(=O)c3cc(NC(=O)[C@H]4[C@H](c5cc(Cl)cc(Cl)c5)C4(Cl)Cl)ccc3Cl)c21 (relative stereo) [F531, 2-Chloro-5-(trans)-(2,2-dichloro-3-(3,5-dichlorophenyl)cyclopropane-1-carboxamido)-N-(1-methyl-1H-indol-7-yl)benzamide] | 50 to 100 | 50 to 100 | A (80-100) |
| O=C(Nc1ccc(F)cc1F)c1cc(NC(=O)[C@H]2[C@H](c3ccc(Br)c(Br)c3)C2(Cl)Cl)ccc1Cl (relative stereo) [F532, 2-Chloro-5-(trans)-(2,2-dichloro-3-(3,4-dibromophenyl)cyclopropane-1-carboxamido)-N-(2,4-difluorophenyl)benzamide] | 50 to 100 | 50 to 100 | A (80-100) |
| O=C(Nc1ccc(F)cc1)c1cc(NC(=O)[C@H]2[C@H](c3cc(F)c(Br)c(F)c3)C2(Cl)Cl)ccc1Cl (relative stereo) [F538, 5-(trans-3-(4-bromo-3,5-difluorophenyl)-2,2-dichlorocyclopropane-1-carboxamido)-2-chloro-N-(4-fluorophenyl)benzamide] | 50 to 100 | 50 to 100 | A (80-100) |
| COc1cc([C@H]2[C@H](C(=O)Nc3ccc(Cl)c(C(=O)Nc4ccc(F)cc4)c3)C2(Cl)Cl)cc(F)c1Br (relative stereo) [F539, 5-(trans-3-(4-Bromo-3-fluoro-5-methoxyphenyl)-2,2-dichlorocyclopropane-1-carboxamido)-2-chloro-N-(4-fluorophenyl)benzamide] | 50 to 100 | 50 to 100 | A (80-100) |
| O=C(Nc1ccc(F)cc1F)c1cc(NC(=O)[C@H]2[C@H](c3cc(F)c(Br)c(F)c3)C2(Cl)Cl)ccc1Cl (relative stereo) [F541, 5-(trans-3-(4-Bromo-3,5-difluorophenyl)-2,2-dichlorocyclopropane-1-carboxamido)-2-chloro-N-(2,4-difluorophenyl)benzamide] | 50 to 100 | 50 to 100 | A (80-100) |
| COc1cc([C@H]2[C@H](C(=O)Nc3ccc(Cl)c(C(=O)Nc4ccc(F)cc4F)c3)C2(Cl)Cl)cc(F)c1Br (relative stereo) [F542, 5-(trans-3-(4-Bromo-3-fluoro-5-methoxyphenyl)-2,2-dichlorocyclopropane-1-carboxamido)-2-chloro-N-(2,4-difluorophenyl)benzamide] | 50 to 100 | 50 to 100 | A (80-100) |
| COc1c(F)cc([C@H]2[C@H](C(=O)Nc3ccc(Cl)c(C(=O)Nc4ccc(F)cc4F)c3)C2(Cl)Cl)cc1Br (relative stereo) [F543, 5-(trans-3-(3-Bromo-5-fluoro-4-methoxyphenyl)-2,2-dichlorocyclopropane-1-carboxamido)-2-chloro-N-(2,4-difluorophenyl)benzamide] | 50 to 100 | 50 to 100 | A (80-100) |
| COc1cc(NC(=O)c2cc(NC(=O)[C@H]3[C@H](c4cc(Cl)cc(Cl)c4)C3(Cl)Cl)ccc2Cl)ccn1 (relative stereo) [F544, 2-Chloro-5-(trans-2,2-dichloro-3-(3,5-dichlorophenyl)cyclopropane-1-carboxamido)-N-(2-methoxypyridin-4-yl)benzamide] | 50 to 100 | 50 to 100 | A (80-100) |
| COc1cc(NC(=O)c2cc(NC(=O)[C@H]3[C@H](c4ccc(F)c(Cl)c4)C3(Cl)Cl)ccc2Cl)ccn1 (relative stereo) [F545, 2-Chloro-5-(trans-2,2-dichloro-3-(3-chloro-4-fluorophenyl)cyclopropane-1-carboxamido)-N-(2-methoxypyridin-4-yl)benzamide] | 50 to 100 | 50 to 100 | A (80-100) |
| COc1nccc(NC(=O)c2cc(NC(=O)[C@H]3[C@H](c4cc(Cl)cc(Cl)c4)C3(Cl)Cl)ccc2Cl)c1Cl (relative stereo) [F546, 2-Chloro-N-(3-chloro-2-methoxypyridin-4-yl)-5-(trans-2,2-dichloro-3-(3,5-dichlorophenyl)cyclopropane-1-carboxamido)benzamide] | 50 to 100 | 50 to 100 | A (80-100) |
| COc1nccc(NC(=O)c2cc(NC(=O)[C@H]3[C@H](c4ccc(F)c(Cl)c4)C3(Cl)Cl)ccc2Cl)c1Cl (relative stereo) [F547, 2-Chloro-N-(3-chloro-2-methoxypyridin-4-yl)-5-(trans-2,2-dichloro-3-(3-chloro-4-fluorophenyl)cyclopropane-1-carboxamido)benzamide] | 50 to 100 | 50 to 100 | A (80-100) |
| COc1cc(NC(=O)c2cc(NC(=O)[C@H]3[C@H](c4cc(Cl)cc(Cl)c4)C3(Cl)Cl)ccc2Cl)c(Br)cn1 (relative stereo) [F548, N-(5-Bromo-2-methoxypyridin-4-yl)-2-chloro-5-(trans-2,2-dichloro-3-(3,5-dichlorophenyl)cyclopropane-1-carboxamido)benzamide] | 50 to 100 | 50 to 100 | A (80-100) |
| COc1cc(NC(=O)c2cc(NC(=O)[C@H]3[C@H](c4ccc(F)c(Cl)c4)C3(Cl)Cl)ccc2Cl)c(Br)cn1 (relative stereo) [F549, N-(5-Bromo-2-methoxypyridin-4-yl)-2-chloro-5-(trans-2,2-dichloro-3-(3-chloro-4-fluorophenyl)cyclopropane-1-carboxamido)benzamide] | 50 to 100 | 50 to 100 | A (80-100) |
| COc1ccc(NC(=O)c2cc(NC(=O)[C@H]3[C@H](c4cc(Cl)cc(Cl)c4)C3(Cl)Cl)ccc2Cl)cn1 (relative stereo) [F550, 2-Chloro-5-(trans-2,2-dichloro-3-(3,5-dichlorophenyl)cyclopropane-1-carboxamido)-N-(6-methoxypyridin-3-yl)benzamide] | 50 to 100 | 50 to 100 | A (80-100) |
| COc1ccc(NC(=O)c2cc(NC(=O)[C@H]3[C@H](c4ccc(F)c(Cl)c4)C3(Cl)Cl)ccc2Cl)cn1 (relative stereo) [F551, 2-Chloro-5-(trans-2,2-dichloro-3-(3-chloro-4-fluorophenyl)cyclopropane-1-carboxamido)-N-(6-methoxypyridin-3-yl)benzamide] | 50 to 100 | 50 to 100 | A (80-100) |
| COc1ccc(NC(=O)c2cc(NC(=O)[C@H]3[C@H](c4cc(Cl)cc(Cl)c4)C3(Cl)Cl)ccc2Cl)c(Cl)n1 (relative stereo) [F552, 2-Chloro-N-(2-chloro-6-methoxypyridin-3-yl)-5-(trans-2,2-dichloro-3-(3,5-dichlorophenyl)cyclopropane-1-carboxamido)benzamide] | 50 to 100 | 50 to 100 | A (80-100) |
| COc1ccc(NC(=O)c2cc(NC(=O)[C@H]3[C@H](c4ccc(F)c(Cl)c4)C3(Cl)Cl)ccc2Cl)c(Cl)n1 (relative stereo) [F553, 2-Chloro-N-(2-chloro-6-methoxypyridin-3-yl)-5-(trans-2,2-dichloro-3-(3-chloro-4-fluorophenyl)cyclopropane-1-carboxamido)benzamide] | 50 to 100 | 50 to 100 | A (80-100) |
| O=C(Nc1ccc(F)cc1F)c1cc(NC(=O)[C@H]2[C@H](c3cc(Cl)cc(C(F)F)c3)C2(Cl)Cl)ccc1Cl (relative stereo) [F558, 2-Chloro-5-(trans-2,2-dichloro-3-(3-chloro-5-(difluoromethyl)phenyl)cyclopropane-1-carboxamido)-N-(2,4-difluorophenyl)benzamide] | 50 to 100 | 50 to 100 | A (80-100) |
